Laboratory results reported in patent publication US20210267203A1, “PESTICIDALLY ACTIVE AZOLE-AMIDE COMPOUNDS” (SYNGENTA PARTICIPATIONS AG, priority 2018, published 2021).

Assays:
Type in all cases: in vivo
[1] = test system: Spodoptera littoralis (Egyptian Cotton Leaf Worm); assay: Example B10: Spodoptera littoralis (Egyptian cotton leaf worm), uptake by lettuce roots from agar, eggs; conditions: 144 h, test rate 12.5 ppm, lettuce root uptake, 6 days after infestation, read-out: effect in at least one of the three categories (mortality, anti-feeding, or growth inhibition)
Excerpt: Example B10: Spodoptera littoralis (Egyptian Cotton Leaf Worm)
Test compounds were applied by pipette from 10,000 ppm DMSO stock solutions into 24-well plates and mixed with agar. Lettuce seeds were placed onto the agar and the multi well plate was closed by another plate which contained also agar. After 7 days the compound was absorbed by the roots and the lettuce grew into the lid plate. The lettuce leaves were then cut off into the lid plate. Spodoptera eggs were pipetted through a plastic stencil onto a humid gel blotting paper and the lid plate was closed with it. The samples were assessed for mortality, anti-feedant effect and growth inhibition in comparison to untreated samples 6 days after infestation.
The following compounds gave an effect of at least 80% in at least one of the three categories (mortality, anti-feeding, or growth inhibition) at a test rate of 12.5 ppm: […]

[2] = test system: Myzus persicae (Green Peach Aphid); assay: Example B8: Myzus persicae (green peach aphid), intrinsic activity; conditions: 120 h, test rate 12 ppm, sucrose solution, 24-well, 5 days after infestation
Method in brief: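 Compounds diluted from 10,000 ppm DMSO stock were mixed with sucrose solution under stretched Parafilm in a sachet feeding setup, with aphid-infested pea seedlings placed on the membrane. Mortality was scored 5 days after infestation.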

[3] = test system: Plutella xylostella (Diamondback Moth); assay: Example B14: activity against Plutella xylostella (diamondback moth), 96-well artificial diet; conditions: 216 h, application rate 500 ppm, 9 days after infestation
Method in brief: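 Diet in 96-well plates was treated with aqueous dilutions of 10,000 ppm DMSO stocks, dried, and infested with 30 eggs per well via a netted lid; hatching L1 larvae fed on the diet. Mortality scored 9 days after infestation.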

[4] = test system: Chilo suppressalis (Striped Rice Stemborer); assay: Example B4: Chilo suppressalis (striped rice stemborer), artificial diet, L2 larvae; conditions: 144 h, application rate 200 ppm, 6 days after infestation
Method in brief: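 L2 larvae (6-8 per well) placed on artificial diet treated with aqueous test solutions prepared from 10,000 ppm DMSO stocks, after drying. Mortality, anti-feeding and growth inhibition scored against untreated samples 6 days after infestation; control means at least one category exceeds untreated.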

[5] = test system: Thrips tabaci (Onion Thrips); assay: Example B12: Thrips tabaci (onion thrips), feeding/contact activity; conditions: 144 h, application rate 200 ppm, mixed ages, 6 days after infestation
Method: Example B12: Thrips tabaci (Onion Thrips) Feeding/Contact Activity
Sunflower leaf discs were placed on agar in 24-well microtiter plates and sprayed with aqueous test solutions prepared from 10,000 ppm DMSO stock solutions. After drying the leaf discs were infested with a thrips population of mixed ages. The samples were assessed for mortality 6 days after infestation.

[6] = test system: Diabrotica Balteata (Corn Root Worm); assay: Example B1: Diabrotica balteata (corn root worm), maize sprouts sprayed, L2 larvae; conditions: 96 h, application rate 200 ppm, 4 days after infestation, read-out: effect in at least one of the two categories (mortality or growth inhibition)
Method in brief: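 Maize sprouts on agar sprayed with aqueous dilutions of 10,000 ppm DMSO stocks, dried, then infested with 6–10 L2 larvae per well. Mortality and growth inhibition scored against untreated samples 4 days after infestation; rates of 200 ppm.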

[7] = test system: Plutella xylostella (Diamond Back Moth); assay: Example B5: Plutella xylostella (diamond back moth), artificial diet, 24-well, eggs; conditions: 192 h, application rate 200 ppm, 8 days after infestation, read-out: effect in at least one of the two categories (mortality or growth inhibition)
Method in brief: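 Artificial diet in 24-well plates treated with aqueous dilutions of 10,000 ppm DMSO stocks, dried, then infested with Plutella eggs. Mortality and growth inhibition scored against untreated samples 8 days after infestation; activity rated at 200 ppm application rate.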

[8] = test system: Spodoptera littoralis (Egyptian Cotton Leaf Worm); assay: Example B9: Spodoptera littoralis (Egyptian cotton leaf worm), cotton leaf discs sprayed, L1 larvae; conditions: foliar, 72 h, application rate 200 ppm, 3 days after infestation
Method in brief: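 Leaf discs on agar sprayed with aqueous dilutions from 10,000 ppm DMSO stock, dried, then infested with five L1 larvae. Mortality, anti-feeding and growth inhibition scored against untreated samples 3 days after infestation; control counted when any category exceeds untreated.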

[9] = test system: Myzus persicae (Green Peach Aphid); assay: Example B13: activity against Myzus persicae (green peach aphid), 96-well sucrose solution; conditions: 120 h, application rate 50 ppm, 5 days after infestation
Method in brief: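 Compounds, from 10,000 ppm DMSO stocks, mixed into sucrose solution in wells under stretched Parafilm, with aphids placed on the membrane in an inverted feeding setup. Mortality scored 5 days after infestation.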

[10] = test system: Euschistus heros (Neotropical Brown Stink Bug); assay: Example B2: Euschistus heros (neotropical brown stink bug), soybean leaves sprayed, N2 nymphs; conditions: 120 h, application rate 200 ppm, 5 days after infestation, read-out: effect in at least one of the two categories (mortality or growth inhibition)
Method in brief: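 Soybean leaves on agar sprayed with aqueous test solutions made from 10,000 ppm DMSO stocks, dried, then infested with N2 nymphs. Mortality and growth inhibition scored versus untreated samples 5 days after infestation; activity threshold at 200 ppm.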

[11] = test system: Myzus persicae (Green Peach Aphid); assay: Example B6: Myzus persicae (green peach aphid), feeding/contact activity; conditions: 144 h, application rate 200 ppm, 6 days after infestation
Method: Example B6: Myzus persicae (Green Peach Aphid):Feeding/Contact Activity
Sunflower leaf discs were placed onto agar in a 24-well microtiter plate and sprayed with aqueous test solutions prepared from 10,000 ppm DMSO stock solutions. After drying, the leaf discs were infested with an aphid population of mixed ages. The samples were assessed for mortality 6 days after infestation.

CC(NC(=O)c1cc(C2CC2C(F)(F)F)cc(C(F)(F)F)c1)c1ncnn1-c1ncccn1 (stereo not shown) [P25, N-[1-(2-pyrimidin-2-yl-1,2,4-triazol-3-yl)ethyl]-3-(trifluoromethyl)-5-[2-(trifluoromethyl)cyclopropyl]benzamide]
≥ 80%: percent effect (mortality, anti-feeding or growth inhibition) at 12.5 ppm [1] | mortality at 12 ppm [2] | mortality at 500 ppm [3] | percent control (mortality, anti-feedant effect or growth inhibition) at 200 ppm [4] | mortality at 200 ppm [5] | percent effect (mortality or growth inhibition) at 200 ppm [6] | percent effect (mortality or growth inhibition) at 200 ppm [7] | percent control (mortality, anti-feedant effect or growth inhibition) at 200 ppm [8] | mortality at 50 ppm [9] | percent effect (mortality or growth inhibition) at 200 ppm [10]

CC(c1ncnn1-c1ncccn1)N(CC1CC1)C(=O)c1cc(Cl)cc(C2(C#N)CC2)n1 (stereo not shown) [P29, 4-chloro-6-(1-cyanocyclopropyl)-N-(cyclopropylmethyl)-N-[1-(2-pyrimidin-2-yl-1,2,4-triazol-3-yl)ethyl]pyridine-2-carboxamide]
≥ 80%: mortality at 12 ppm [2] | mortality at 500 ppm [3] | mortality at 200 ppm [5] | percent effect (mortality or growth inhibition) at 200 ppm [6] | percent effect (mortality or growth inhibition) at 200 ppm [7] | mortality at 50 ppm [9] | percent effect (mortality or growth inhibition) at 200 ppm [10]

CC(c1ncnn1-c1ncccn1)N(CC1CC1)C(=O)c1cc(C(F)(F)F)cc(S(=O)(=O)C(F)F)c1 (stereo not shown) [P30, N-(cyclopropylmethyl)-3-(difluoromethylsulfonyl)-N-[1-(2-pyrimidin-2-yl-1,2,4-triazol-3-yl)ethyl]-5-(trifluoromethyl)benzamide]
≥ 80%: mortality at 12 ppm [2] | mortality at 500 ppm [3] | mortality at 200 ppm [5] | percent effect (mortality or growth inhibition) at 200 ppm [6] | percent effect (mortality or growth inhibition) at 200 ppm [7] | mortality at 50 ppm [9] | percent effect (mortality or growth inhibition) at 200 ppm [10]

CC(c1ncnn1-c1ncccn1)N(CC1CC1)C(=O)c1cc(C(F)(F)F)nc(C2(C#N)CC2)c1 (stereo not shown) [P32, 2-(1-cyanocyclopropyl)-N-(cyclopropylmethyl)-N-[1-(2-pyrimidin-2-yl-1,2,4-triazol-3-yl)ethyl]-6-(trifluoromethyl)pyridine-4-carboxamide]
≥ 80%: percent effect (mortality, anti-feeding or growth inhibition) at 12.5 ppm [1] | mortality at 500 ppm [3] | percent control (mortality, anti-feedant effect or growth inhibition) at 200 ppm [4] | mortality at 200 ppm [5] | percent effect (mortality or growth inhibition) at 200 ppm [6] | percent effect (mortality or growth inhibition) at 200 ppm [7] | percent control (mortality, anti-feedant effect or growth inhibition) at 200 ppm [8] | mortality at 50 ppm [9] | percent effect (mortality or growth inhibition) at 200 ppm [10]

CC(c1ncnn1-c1ncccn1)N(CC1CC1)C(=O)c1cc(C(F)(F)F)cc(C(F)(F)C2CC2)c1 (stereo not shown) [P49, 3-[cyclopropyl(difluoro)methyl]-N-(cyclopropylmethyl)-N-[1-(2-pyrimidin-2-yl-1,2,4-triazol-3-yl)ethyl]-5-(trifluoromethyl)benzamide]
≥ 80%: percent effect (mortality, anti-feeding or growth inhibition) at 12.5 ppm [1] | mortality at 12 ppm [2] | mortality at 500 ppm [3] | percent control (mortality, anti-feedant effect or growth inhibition) at 200 ppm [4] | mortality at 200 ppm [5] | percent effect (mortality or growth inhibition) at 200 ppm [6] | percent effect (mortality or growth inhibition) at 200 ppm [7] | percent control (mortality, anti-feedant effect or growth inhibition) at 200 ppm [8] | mortality at 50 ppm [9] | percent effect (mortality or growth inhibition) at 200 ppm [10]

CC(c1ncnn1-c1ncccn1)N(CC1CC1)C(=O)c1cc(C2CC2(F)F)cc(C(F)(F)F)c1 (stereo not shown) [P50, N-(cyclopropylmethyl)-3-(2,2-difluorocyclopropyl)-N-[1-(2-pyrimidin-2-yl-1,2,4-triazol-3-yl)ethyl]-5-(trifluoromethyl)benzamide]
≥ 80%: percent effect (mortality, anti-feeding or growth inhibition) at 12.5 ppm [1] | mortality at 12 ppm [2] | mortality at 500 ppm [3] | percent control (mortality, anti-feedant effect or growth inhibition) at 200 ppm [4] | mortality at 200 ppm [5] | percent effect (mortality or growth inhibition) at 200 ppm [6] | percent effect (mortality or growth inhibition) at 200 ppm [7] | percent control (mortality, anti-feedant effect or growth inhibition) at 200 ppm [8] | mortality at 50 ppm [9] | mortality at 200 ppm [11]

CC(c1ncnn1-c1ncccn1)N(CC1CC1)C(=O)c1cc(C2CC2)cc(C(F)(F)F)c1 (stereo not shown) [P52, 3-cyclopropyl-N-(cyclopropylmethyl)-N-[1-(2-pyrimidin-2-yl-1,2,4-triazol-3-yl)ethyl]-5-(trifluoromethyl)benzamide]
≥ 80%: mortality at 12 ppm [2] | mortality at 500 ppm [3] | mortality at 200 ppm [5] | percent effect (mortality or growth inhibition) at 200 ppm [6] | percent effect (mortality or growth inhibition) at 200 ppm [7] | percent control (mortality, anti-feedant effect or growth inhibition) at 200 ppm [8] | mortality at 50 ppm [9] | percent effect (mortality or growth inhibition) at 200 ppm [10]

CC(NC(=O)c1cc(C(F)(F)F)cc(C(F)(F)C2CC2)c1)c1ncnn1-c1ncccn1 (stereo not shown) [P59, 3-[cyclopropyl(difluoro)methyl]-N-[1-(2-pyrimidin-2-yl-1,2,4-triazol-3-yl)ethyl]-5-(trifluoromethyl)benzamide]
≥ 80%: percent effect (mortality, anti-feeding or growth inhibition) at 12.5 ppm [1] | mortality at 12 ppm [2] | mortality at 500 ppm [3] | percent control (mortality, anti-feedant effect or growth inhibition) at 200 ppm [4] | percent effect (mortality or growth inhibition) at 200 ppm [6] | percent effect (mortality or growth inhibition) at 200 ppm [7] | percent control (mortality, anti-feedant effect or growth inhibition) at 200 ppm [8] | mortality at 50 ppm [9] | percent effect (mortality or growth inhibition) at 200 ppm [10]

CC(NC(=O)c1cc(C2CC2(F)F)cc(C(F)(F)F)c1)c1ncnn1-c1ncccn1 (stereo not shown) [P87, 3-(2,2-difluorocyclopropyl)-N-[1-(2-pyrimidin-2-yl-1,2,4-triazol-3-yl)ethyl]-5-(trifluoromethyl)benzamide]
≥ 80%: percent effect (mortality, anti-feeding or growth inhibition) at 12.5 ppm [1] | mortality at 12 ppm [2] | percent control (mortality, anti-feedant effect or growth inhibition) at 200 ppm [4] | percent effect (mortality or growth inhibition) at 200 ppm [6] | percent effect (mortality or growth inhibition) at 200 ppm [7] | percent control (mortality, anti-feedant effect or growth inhibition) at 200 ppm [8] | mortality at 50 ppm [9] | percent effect (mortality or growth inhibition) at 200 ppm [10] | mortality at 200 ppm [11]
